Data as given in patent US20260022142A1, “MACROCYCLIC IMMUNOMODULATORS” (Bristol-Myers Squibb Company, priority 2022, published 2026).
Bridge positions count the residues as written; N and C are the ends. Square brackets hold non-standard residues; d marks the D form. Peptide text beside a SMILES is read from it. * marks the point of attachment. ξ: configuration not given here. Phe(4-COOH) = N[C@@H](Cc1ccc(C(=O)O)cc1)C(=O)O; Bip = N[C@@H](Cc1ccc(-c2ccccc2)cc1)C(=O)O; Phe(4-CN) = N#Cc1ccc(C[C@H](N)C(=O)O)cc1; NH(CH2)14COOH = O=C(O)CCCCCCCCCCCCCCN*; Phe(3-Me) = Cc1cccc(C[C@H](N)C(=O)O)c1; Phe(4-F) = N[C@@H](Cc1ccc(F)cc1)C(=O)O; Val(3-OH) = CC(C)(O)[C@H](N)C(=O)O; 4Pal = N[C@@H](Cc1ccncc1)C(=O)O; Cha = N[C@@H](CC1CCCCC1)C(=O)O; Thr(3ξ) = CC(O)[C@H](N)C(=O)O; dDab = NCC[C@@H](N)C(=O)O; Carboxymethyl = O=C(O)C*; Orn = NCCC[C@H](N)C(=O)O; Aun = NCCCCCCCCCCC(=O)O; Dab = NCC[C@H](N)C(=O)O; AEEA = NCCOCCOCC(=O)O

Molecular target: T1, PD-1/PD-L1 interaction (PE-labeled human PD-L1-Ig binding to Jurkat cell line over-expressing human PD-1) (Homo sapiens, UniProt Q15116)
T1 construct: expressed in transfected cells; host or cells: Jurkat
T1 sequence (Q15116 25-288): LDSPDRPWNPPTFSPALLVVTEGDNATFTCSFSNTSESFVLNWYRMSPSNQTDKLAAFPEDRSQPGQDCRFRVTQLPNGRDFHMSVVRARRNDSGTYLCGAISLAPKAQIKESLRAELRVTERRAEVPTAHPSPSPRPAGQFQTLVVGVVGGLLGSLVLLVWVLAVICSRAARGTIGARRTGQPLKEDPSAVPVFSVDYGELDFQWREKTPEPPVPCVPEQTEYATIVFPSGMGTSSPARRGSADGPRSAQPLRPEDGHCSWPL
Test: Jurkat-PD-1 Cell Binding High-Content Screening Assay (CBA)
Type: cell-based
Details: Jurkat cell line over-expressing human PD-1; PE-labeled PD-L1-Ig 20 nM final; read-out: Jurkat hPD1-PDL1 IC50
How it was run: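 Binding of fluorescent PD-L1-Ig (phycoerythrin on Ig tag, 20 nM final, 1 h) measured by high-content imaging of fixed, Hoechst-counterstained Jurkat-hPD-1 cells. Compound added 2 h at 37° C beforehand, in DMEM with 10% fetal calf serum.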

Structure (SMILES)	IC50 [nM]
Cc1cccc(C[C@@H]2NC(=O)[C@H](CC(=O)O)NC(=O)[C@H](Cc3ccc(OCC(=O)O)cc3)NC(=O)[C@H](CCN)NC(=O)CSC[C@@H](C(=O)N[C@@H](CCN)C(=O)NCCOCCOCC(=O)NCCOCCOCC(=O)NCCCCCCCCCCCCCCC(=O)O)NC(=O)[C@H](Cc3cnc[nH]3)NC(=O)[C@H](C(C)(C)O)NC(=O)[C@H](CC3CCCCC3)NC(=O)[C@H](CCN)NC(=O)[C@@H](CC(C)C)NC(=O)[C@H](CCCN)NC(=O)[C@H](Cc3ccc(C(=O)O)cc3)NC(=O)[C@H](Cc3ccc(-c4ccccc4)cc3)NC(=O)[C@H](Cc3ccc(C(=O)O)cc3)NC2=O)c1 [Compound 3762] ({CH2CO}-[Dab]Y(Carboxymethyl)D[Phe(3-Me)][Phe(4-COOH)][Bip][Phe(4-COOH)][Orn][dL][Dab][Cha][Val(3-OH)]HC[Dab][AEEA][AEEA]-{NH(CH2)14COOH}; thioether N-14)	27.5
Cc1cccc(C[C@@H]2NC(=O)[C@H](CC(=O)O)NC(=O)[C@H](Cc3ccc(C(=O)O)cc3)NC(=O)[C@H](Cc3ccncc3)NC(=O)CSC[C@@H](C(=O)N[C@@H](CCN)C(=O)NCCOCCOCC(=O)NCCOCCOCC(=O)NCCCCCCCCCCC(=O)O)NC(=O)[C@H](CCC(=O)O)NC(=O)[C@H](C(C)(C)O)NC(=O)[C@H](CC3CCCCC3)NC(=O)[C@H](CCN)NC(=O)[C@@H](CC(C)C)NC(=O)[C@H](CCCN)NC(=O)[C@H](Cc3ccc(C(=O)O)cc3)NC(=O)[C@H](Cc3ccc(-c4ccccc4)cc3)NC(=O)[C@H](Cc3ccc(C(=O)O)cc3)NC2=O)c1 [Compound 3764] ({CH2CO}-[4Pal][Phe(4-COOH)]D[Phe(3-Me)][Phe(4-COOH)][Bip][Phe(4-COOH)][Orn][dL][Dab][Cha][Val(3-OH)]EC[Dab][AEEA][AEEA][Aun]-OH; thioether N-14)	238
Cc1cccc(C[C@@H]2NC(=O)[C@H](CC(=O)O)NC(=O)[C@H](Cc3ccc(C(=O)O)cc3)NC(=O)[C@H](Cc3ccncc3)NC(=O)CSC[C@@H](C(=O)N[C@@H](CCN)C(=O)NCCOCCOCC(=O)NCCOCCOCC(=O)NCCCCCCCCCCC(=O)O)NC(=O)[C@H](CCC(=O)O)NC(=O)[C@H](C(C)C)NC(=O)[C@H](CC3CCCCC3)NC(=O)[C@H](CCN)NC(=O)[C@@H](CC(C)C)NC(=O)[C@H](CCCN)NC(=O)[C@H](Cc3ccc(C(=O)O)cc3)NC(=O)[C@H](Cc3ccc(-c4ccccc4)cc3)NC(=O)[C@H](Cc3ccc(C(=O)O)cc3)NC2=O)c1 [Compound 3765] ({CH2CO}-[4Pal][Phe(4-COOH)]D[Phe(3-Me)][Phe(4-COOH)][Bip][Phe(4-COOH)][Orn][dL][Dab][Cha]VEC[Dab][AEEA][AEEA][Aun]-OH; thioether N-14)	344
Cc1cccc(C[C@@H]2NC(=O)[C@H](CC(=O)O)NC(=O)[C@H](Cc3ccc(OCC(=O)O)cc3)NC(=O)[C@H](Cc3ccncc3)NC(=O)CSC[C@@H](C(=O)N[C@@H](CCN)C(=O)NCCOCCOCC(=O)NCCOCCOCC(=O)NCCCCCCCCCCC(=O)O)NC(=O)[C@H](Cc3cnc[nH]3)NC(=O)[C@H](C(C)C)NC(=O)[C@H](CC3CCCCC3)NC(=O)[C@H](CCN)NC(=O)[C@@H](CC(C)C)NC(=O)[C@H](CCCN)NC(=O)[C@H](Cc3ccc(C(=O)O)cc3)NC(=O)[C@H](Cc3ccc(-c4ccccc4)cc3)NC(=O)[C@H](Cc3ccc(C(=O)O)cc3)NC2=O)c1 [Compound 3766] ({CH2CO}-[4Pal]Y(Carboxymethyl)D[Phe(3-Me)][Phe(4-COOH)][Bip][Phe(4-COOH)][Orn][dL][Dab][Cha]VHC[Dab][AEEA][AEEA][Aun]-OH; thioether N-14)	31.2
Cc1cccc(C[C@@H]2NC(=O)[C@H](CC(=O)O)NC(=O)[C@H](Cc3ccc(OCC(=O)O)cc3)NC(=O)[C@H](Cc3ccc(F)cc3)NC(=O)CSC[C@@H](C(=O)N[C@@H](CCN)C(=O)NCCOCCOCC(=O)NCCOCCOCC(=O)NCCCCCCCCCCC(=O)O)NC(=O)[C@H](Cc3cnc[nH]3)NC(=O)[C@H](C(C)(C)O)NC(=O)[C@H](CC3CCCCC3)NC(=O)[C@H](CCN)NC(=O)[C@@H](CC(C)C)NC(=O)[C@H](CCCN)NC(=O)[C@H](Cc3ccc(C(=O)O)cc3)NC(=O)[C@H](Cc3ccc(-c4ccccc4)cc3)NC(=O)[C@H](Cc3ccc(C(=O)O)cc3)NC2=O)c1 [Compound 3767] ({CH2CO}-[Phe(4-F)]Y(Carboxymethyl)D[Phe(3-Me)][Phe(4-COOH)][Bip][Phe(4-COOH)][Orn][dL][Dab][Cha][Val(3-OH)]HC[Dab][AEEA][AEEA][Aun]-OH; thioether N-14)	9.6
Cc1cccc(C[C@@H]2NC(=O)[C@H](CC(=O)O)NC(=O)[C@H](Cc3ccc(OCC(=O)O)cc3)NC(=O)[C@H](Cc3ccc(F)cc3)NC(=O)CSC[C@@H](C(=O)N[C@@H](CCN)C(=O)NCCOCCOCC(=O)NCCOCCOCC(=O)NCCCCCCCCCCC(=O)O)NC(=O)[C@H](CCC(=O)O)NC(=O)[C@H](C(C)(C)O)NC(=O)[C@H](CC3CCCCC3)NC(=O)[C@H](CCN)NC(=O)[C@@H](CC(C)C)NC(=O)[C@H](CCCN)NC(=O)[C@H](Cc3ccc(C(=O)O)cc3)NC(=O)[C@H](Cc3ccc(-c4ccccc4)cc3)NC(=O)[C@H](Cc3ccc(C(=O)O)cc3)NC2=O)c1 [Compound 3768] ({CH2CO}-[Phe(4-F)]Y(Carboxymethyl)D[Phe(3-Me)][Phe(4-COOH)][Bip][Phe(4-COOH)][Orn][dL][Dab][Cha][Val(3-OH)]EC[Dab][AEEA][AEEA][Aun]-OH; thioether N-14)	6.5
Cc1cccc(C[C@@H]2NC(=O)[C@H](CC(=O)O)NC(=O)[C@H](Cc3ccc(OCC(=O)O)cc3)NC(=O)[C@H](C)NC(=O)CSC[C@@H](C(=O)N[C@@H](CCN)C(=O)NCCOCCOCC(=O)NCCCCCCCCCCC(=O)O)NC(=O)[C@H](CO)NC(=O)[C@H](C(C)(C)O)NC(=O)[C@H](CC3CCCCC3)NC(=O)[C@H](CCN)NC(=O)[C@@H](CC(C)C)NC(=O)[C@H](CCCN)NC(=O)[C@H](Cc3ccc(C(=O)O)cc3)NC(=O)[C@H](Cc3ccc(-c4ccccc4)cc3)NC(=O)[C@H](Cc3ccc(C(=O)O)cc3)NC2=O)c1 [Compound 3769] ({CH2CO}-AY(Carboxymethyl)D[Phe(3-Me)][Phe(4-COOH)][Bip][Phe(4-COOH)][Orn][dL][Dab][Cha][Val(3-OH)]SC[Dab][AEEA][Aun]-OH; thioether N-14)	3.5
Cc1cccc(C[C@@H]2NC(=O)[C@H](CC(=O)O)NC(=O)[C@H](Cc3ccc(OCC(=O)O)cc3)NC(=O)[C@@H](CCN)NC(=O)CSC[C@@H](C(=O)N[C@@H](CCN)C(=O)NCCCCCCCCCCC(=O)O)NC(=O)[C@H](Cc3cnc[nH]3)NC(=O)[C@H](C(C)(C)O)NC(=O)[C@H](CC3CCCCC3)NC(=O)[C@H](CCN)NC(=O)[C@@H](CC(C)C)NC(=O)[C@H](CCCN)NC(=O)[C@H](Cc3ccc(C(=O)O)cc3)NC(=O)[C@H](Cc3ccc(-c4ccccc4)cc3)NC(=O)[C@H](Cc3ccc(C(=O)O)cc3)NC2=O)c1 [Compound 3770] ({CH2CO}-[dDab]Y(Carboxymethyl)D[Phe(3-Me)][Phe(4-COOH)][Bip][Phe(4-COOH)][Orn][dL][Dab][Cha][Val(3-OH)]HC[Dab][Aun]-OH; thioether N-14)	239
Cc1cccc(C[C@@H]2NC(=O)[C@H](CC(=O)O)NC(=O)[C@H](Cc3ccc(OCC(=O)O)cc3)NC(=O)[C@H](CCN)NC(=O)CSC[C@@H](C(=O)N[C@@H](CCN)C(=O)NCCOCCOCC(=O)NCCOCCOCC(=O)NCCOCCOCC(=O)NCCCCCCCCCCC(=O)O)NC(=O)[C@H](CCC(=O)O)NC(=O)[C@H](C(C)(C)O)NC(=O)[C@H](CC3CCCCC3)NC(=O)[C@H](CCN)NC(=O)[C@@H](CC(C)C)NC(=O)[C@H](CCCN)NC(=O)[C@H](Cc3ccc(OCC(=O)O)cc3)NC(=O)[C@H](Cc3ccc(-c4ccccc4)cc3)NC(=O)[C@H](Cc3ccc(OCC(=O)O)cc3)NC2=O)c1 [Compound 3771] ({CH2CO}-[Dab]Y(Carboxymethyl)D[Phe(3-Me)]Y(Carboxymethyl)[Bip]Y(Carboxymethyl)[Orn][dL][Dab][Cha][Val(3-OH)]EC[Dab][AEEA][AEEA][AEEA][Aun]-OH; thioether N-14)	4.7
Cc1cccc(C[C@@H]2NC(=O)[C@H](CC(=O)O)NC(=O)[C@H](Cc3ccc(OCC(=O)O)cc3)NC(=O)[C@H](CCN)NC(=O)CSC[C@@H](C(=O)N[C@@H](CCN)C(=O)NCCOCCOCC(=O)NCCOCCOCC(=O)NCCOCCOCC(=O)NCCCCCCCCCCC(=O)O)NC(=O)[C@H](Cc3cnc[nH]3)NC(=O)[C@H](C(C)(C)O)NC(=O)[C@H](CC3CCCCC3)NC(=O)[C@H](CCN)NC(=O)[C@@H](CC(C)C)NC(=O)[C@H](CCCN)NC(=O)[C@H](Cc3ccc(C(=O)O)cc3)NC(=O)[C@H](Cc3ccc(-c4ccccc4)cc3)NC(=O)[C@H](Cc3ccc(C(=O)O)cc3)NC2=O)c1 [Compound 3772] ({CH2CO}-[Dab]Y(Carboxymethyl)D[Phe(3-Me)][Phe(4-COOH)][Bip][Phe(4-COOH)][Orn][dL][Dab][Cha][Val(3-OH)]HC[Dab][AEEA][AEEA][AEEA][Aun]-OH; thioether N-14)	2.6
Cc1cccc(C[C@@H]2NC(=O)[C@H](CC(=O)O)NC(=O)[C@H](Cc3ccc(C#N)cc3)NC(=O)[C@H](C(C)O)NC(=O)CSC[C@@H](C(=O)N[C@@H](CCN)C(=O)NCCOCCOCC(=O)NCCOCCOCC(=O)NCCCCCCCCCCC(=O)O)NC(=O)[C@H](Cc3cnc[nH]3)NC(=O)[C@H](C(C)(C)O)NC(=O)[C@H](CC3CCCCC3)NC(=O)[C@H](CCN)NC(=O)[C@@H](CC(C)C)NC(=O)[C@H](CCCN)NC(=O)[C@H](Cc3ccc(OCC(=O)O)cc3)NC(=O)[C@H](Cc3ccc(-c4ccccc4)cc3)NC(=O)[C@H](Cc3ccc(OCC(=O)O)cc3)NC2=O)c1 (stereo partly drawn) [Compound 3773] ({CH2CO}-[Thr(3ξ)][Phe(4-CN)]D[Phe(3-Me)]Y(Carboxymethyl)[Bip]Y(Carboxymethyl)[Orn][dL][Dab][Cha][Val(3-OH)]HC[Dab][AEEA][AEEA][Aun]-OH; thioether N-14)	1
